Marks after values point to notes of the source that are not given here.
Experiments:
[1] = target: HDAC1 (Homo sapiens, UniProt Q13547); experiment: HDAC enzyme activity assay (fluorogenic substrate), HDAC1; format: biochemical; conditions: recombinant enzyme; read-out: HDAC1 inhibition (IC50)
[2] = Pharmacokinetics, plasma and brain concentrations in wild type mice; format: in vivo; conditions: mouse, ip; for CMax (brain; nmol/Kg): in vivo; for Tmax / Cmax: single intraperitoneal injection, wild type mice; for Tmax: time of maximum concentration in brain; for Cmax: plasma, at tMax, (Standard Deviation)
Description: Plasma and brain samples for measuring compounds concentrations were collected at predetermined times from four wild type mice per point. Three time points were measured: 0.25, 0.5 and 1.0 hour. Compounds concentration was measured using a Xevo-TQ MS triple quadropole mass spectrometer with an electrospray ionization (ESI) source and an Acquity UPLC (Waters, Manchester, UK).
[…]. Compounds were injected as a single intraperitoneal injection. Animals were killed by decapitation.
Plasma. Blood was collected into tubes containing EDTA and plasma was collected via centrifugation (4° C., 13200 rpm, 5 min) and stored at −80° C. until analysis.
Brain. Brains were collected immediately after mice death. The brains were excised, weighed and frozen at −80° C. until further process for analysis.
Chromatographic separation was performed by gradient elution at 0.4 mL/min using an Acquity UPLC BEH C18 column (100×2.1 mm, 1.7 μm particle size; Waters). The mobile phase consisted of A: water with 0.1% formic acid, B: methanol with 0.1% formic acid. After 1.5 min at the initial condition of 95% A, solvent B was increased from 5% to 100% over 2 min, maintained at 100% for 1.5 min, then a linear gradient to initial conditions was applied for 0.1 min and maintained for 3.4 minutes to re-equilibrate the column, giving a cycle time of 8.5 min. The autosampler temperature was set at 10° C. and column temperature at 45° C.
Compounds were monitored using a triple quadrupole mass spectrometer equipped with an electrospray ionization interface. For detection and quantification, a capillary voltage of 3.5 kV and a cone voltage of 38 V were used. Source and desolvation temperatures were 150° C. and 650° C., respectively. Ultra-high purity nitrogen was used for cone gas (75 L h^−1) and desolvation gas (1000 L h^−1). The electrospray ionization operated in the positive mode, and the collision gas used was ultra-pure argon at a flow rate of 0.15 mL min^−1.
Quantification was achieved by external calibration using matrix-matched standards. Concentrations were calculated using a weighted least-squares linear regression (W=1/×). […]. The mixture was then agitated for 10 min and centrifuged at 13200 rpm for 5 min at 4° C. The resulting supernatants were transferred to a Ostro plate (Waters, Manchester, UK), designed to remove phospholipids. The resulting eluents were evaporated at 37° C. under a stream of nitrogen. Residues were dissolved in 75 μL of a mixture of methanol and water (50:50, v:v). A 10-uL aliquot of the resulting solution was injected onto the LC-MS/MS system for analysis. Frozen plasma samples were thawed at room temperature, vortexed thoroughly and subjected to the above described extraction procedure. Brain samples were thawed unassisted at room temperature and homogenized using a Branson 250 ultrasonic sonifier (Branson, Danbury, Conn., USA). When homogenized, 75 mg were weighted and extracted as described previously.
Concentration values obtained from the LC-MS/MS analyses are described in Table 4.

[3] = system: acetylated histone 3 at Lys9 (AcH3K9); experiment: HDAC activity in wild type primary neurons (Western blot AcH3K9); format: cell-based, mouse; conditions: Mus musculus, Neuron, 0.5 h, 30 min, EC50 = 50% increase in AcH3K9 over basal, read-out: AcH3 (EC50)
[4] = system: acetylated-α-tubulin; experiment: AD-related markers in Tg2576 neurons: acetylated-tubulin; format: cell-based; conditions: Mus musculus, Neuron, 48 h, treated two days, EC50 = 50% increase in acetylated-α-tubulin over basal, read-out: AcTub (EC50)
[5] = system: phosphorylated tau (p-tau); experiment: AD-related markers in Tg2576 neurons: pTau; format: cell-based; conditions: Mus musculus, Neuron, 48 h, treated two days, EC50 = 50% decrease in pTau over basal
[6] = system: pCREB; experiment: In-vivo activity, hippocampus of wild type mice: pCREB; parameters: species or system mouse; conditions: i.p. 40 mg/kg, hippocampus one hour later
Description: (§1) To determine the ability of the compounds to inhibit HDAC and PDE in the brain, the compound was administered to wild type mice by i.p. at a dose of 40 mg/kg (n=3). Another group of animals received the vehicle (1/1/8, v:v:v, DMSO/Tween 20/saline). One hour later, mice were sacrificed by cervical dislocation and their hippocampus was quickly dissected from the brains.
(§2) Total tissue homogenates were obtained by homogenizing the hippocampus in a cold lysis buffer with protease inhibitors (0.2 M NaCl, 0.1 M HEPES, 10% glycerol, 200 mM NaF, 2 mM Na4P2O7, 5 mM EDTA, 1 mM EGTA, 2 mM DTT, 0.5 mM PMSF, 1 mM Na3VO4 and Complete Protease Inhibitor Cocktail, Roche Diagnostics). The homogenate was then centrifuged at 14,000×g at 4° C. for 20 min and the supernatant aliquoted and stored at −80° C. Total protein concentrations were determined using the BioRad Bradford protein assay (BioRad Laboratories). Protein samples were analyzed as described in the “in vitro” section.

[7] = target: T1, HDAC3 (Homo sapiens, UniProt O15379); experiment: HDAC enzyme activity assay (fluorogenic substrate), HDAC3; format: biochemical; conditions: recombinant enzyme; read-out: HDAC3 inhibition (IC50)
T1 construct: is full-length with C-terminal his tag and human NCOR2, N-terminal GST tag; His (C); purchased BPS Biosciences 50003; host or cells: baculovirus infected Sf9 cells
T1 sequence (O15379 whole entry): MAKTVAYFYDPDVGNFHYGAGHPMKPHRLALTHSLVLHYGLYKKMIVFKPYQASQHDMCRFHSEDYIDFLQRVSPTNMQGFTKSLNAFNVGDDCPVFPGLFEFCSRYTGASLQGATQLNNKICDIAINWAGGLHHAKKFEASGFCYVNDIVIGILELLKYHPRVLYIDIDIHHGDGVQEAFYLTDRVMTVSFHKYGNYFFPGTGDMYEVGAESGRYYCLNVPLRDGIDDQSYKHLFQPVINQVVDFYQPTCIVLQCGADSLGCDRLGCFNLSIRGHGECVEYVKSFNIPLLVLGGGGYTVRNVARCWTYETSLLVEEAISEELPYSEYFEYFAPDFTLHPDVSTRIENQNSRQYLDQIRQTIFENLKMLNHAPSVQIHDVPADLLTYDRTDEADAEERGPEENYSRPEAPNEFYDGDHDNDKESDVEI
T1 sequence (Q9Y618 395-489 partner limits assumed): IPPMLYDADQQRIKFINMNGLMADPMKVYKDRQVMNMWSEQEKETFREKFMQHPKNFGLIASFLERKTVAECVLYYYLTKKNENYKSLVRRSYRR

[8] = target: T2, PDE5A (Homo sapiens, UniProt O76074); experiment: PDE enzyme activity assay (HTRF cGMP), PDE5A; format: biochemical; conditions: recombinant enzyme; read-out: PDE5A1 inhibition (IC50)
T2 construct: they are full-length with N-terminal GST tag; GST (N); purchased BPS Biosciences 60050; host or cells: baculovirus infected Sf9 cells

[9] = system: AcH3; experiment: In-vivo activity, hippocampus of wild type mice: AcH3; parameters: species or system mouse; conditions: i.p. 40 mg/kg, hippocampus one hour later
Description: as §1, §2

[10] = target: T3, PDE9A isoform b (Homo sapiens, UniProt O76083); experiment: PDE enzyme activity assay (HTRF cGMP), PDE9A; format: biochemical; conditions: recombinant enzyme; read-out: PDE9A inhibition (IC50)
T3 construct: they are full-length with N-terminal GST tag; GST (N); purchased BPS Biosciences 60090; host or cells: baculovirus infected Sf9 cells
T3 sequence (O76083 1-533 isoform O76083-2): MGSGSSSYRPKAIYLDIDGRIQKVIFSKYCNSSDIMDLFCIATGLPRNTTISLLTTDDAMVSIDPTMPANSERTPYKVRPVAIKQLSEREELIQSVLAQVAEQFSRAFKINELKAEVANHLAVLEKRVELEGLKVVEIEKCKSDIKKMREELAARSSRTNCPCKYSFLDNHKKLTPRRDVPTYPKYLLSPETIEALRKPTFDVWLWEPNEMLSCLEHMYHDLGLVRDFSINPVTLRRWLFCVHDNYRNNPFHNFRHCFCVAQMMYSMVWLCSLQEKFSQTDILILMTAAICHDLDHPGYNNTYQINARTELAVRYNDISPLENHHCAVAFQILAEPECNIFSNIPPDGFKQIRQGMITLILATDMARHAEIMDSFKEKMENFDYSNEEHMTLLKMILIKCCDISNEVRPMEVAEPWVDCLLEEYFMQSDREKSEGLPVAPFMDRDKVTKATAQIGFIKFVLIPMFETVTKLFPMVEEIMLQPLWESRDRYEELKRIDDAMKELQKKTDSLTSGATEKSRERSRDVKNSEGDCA

HDAC1, sequence (Q13547 whole entry): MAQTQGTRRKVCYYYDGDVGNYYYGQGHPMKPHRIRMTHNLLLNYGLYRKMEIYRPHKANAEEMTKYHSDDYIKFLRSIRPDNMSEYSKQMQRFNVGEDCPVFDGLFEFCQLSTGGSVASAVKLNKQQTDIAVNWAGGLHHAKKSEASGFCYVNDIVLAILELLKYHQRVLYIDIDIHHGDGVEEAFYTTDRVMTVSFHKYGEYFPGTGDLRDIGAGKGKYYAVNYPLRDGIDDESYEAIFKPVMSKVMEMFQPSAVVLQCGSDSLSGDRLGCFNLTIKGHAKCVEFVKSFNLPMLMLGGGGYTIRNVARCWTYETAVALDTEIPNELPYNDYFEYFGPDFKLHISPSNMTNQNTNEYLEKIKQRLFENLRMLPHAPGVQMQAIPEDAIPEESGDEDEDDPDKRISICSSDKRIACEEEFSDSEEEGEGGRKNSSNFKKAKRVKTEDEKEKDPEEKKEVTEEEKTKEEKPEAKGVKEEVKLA

Row | IC50 [1] | CMax (brain; nmol/Kg) ([2]; 40 mg/kg) | Tmax ([2]; dosage 40 mg/Kg) | Cmax ([2]; dosage 40 mg/Kg) | EC50 [3] | EC50 [4] | EC50 [5] | IC50 [7] | IC50 [8] | IC50 [10] | CMax (brain; nmol/Kg) ([2]; 20 mg/kg) | Tmax ([2]; dosage 20 mg/Kg) | Cmax ([2]; dosage 20 mg/Kg) | Compound | pCREB, increment in biological response vs basal [6] | AcH3, increment in biological response vs basal [9]
1 | 0.01 to 1 µM | 609 (178)^c nmol/Kg | 15 min | 15800 nM | 0.01 to 1 µM | 0.01 to 1 µM | 0.01 to 1 µM | 0.01 to 1 µM | 0.01 to 1 µM | – | – | – | – | CCCc1nn(C)c2c(=O)[nH]c(-c3cc(CC4CC(C(=O)NO)C4)ccc3OCC)nc12 (racemic) [Example 1-19, 3-[[4-ethoxy-3-(1-methyl-7-oxo-3-propyl-6H-pyrazolo[4,3-d]pyrimidin-5-yl)phenyl]methyl]cyclobutanecarbohydroxamic acid] | +++ (basal×2≦(+++)<basal×3) | +++ (basal×2≦(+++)<basal×3)
2 | < 0.01 µM | – | – | – | 0.01 to 1 µM | 0.01 to 1 µM | – | 0.01 to 1 µM | < 0.01 µM | > 10 µM | 5.8 (1.8)^c nmol/Kg | 15 min | 283 nM | CCCc1nn(C)c2c(=O)[nH]c(-c3cc(S(=O)(=O)N4CCN(c5ncc(C(=O)NO)cn5)CC4)ccc3OCC)nc12 [Example 1-06, 2-(4-[3-(6,7-Dihydro-1-methyl-7-oxo-3-propyl-1H-pyrazolo[4,3-d]pyrimidin-5-yl)-4-ethoxyphenylsulfonyl]piperazin-1-yl)-N-hydroxypyrimidine-5-carboxamide] | +++ (basal×2≦(+++)<basal×3) | +++ (basal×2≦(+++)<basal×3)
3 | 0.01 to 1 µM | – | – | – | 0.01 to 1 µM | 0.01 to 1 µM | – | 1 to 10 µM | 0.01 to 1 µM | – | 29 (8)^c nmol/Kg | 15 min | 653 nM | CCCc1nn(C)c2c(=O)[nH]c(-c3cc(Cc4ccc(C(=O)NO)cc4)ccc3OCC)nc12 [Example 1-15, 4-[[4-ethoxy-3-(1-methyl-7-oxo-3-propyl-6H-pyrazolo[4,3-d]pyrimidin-5-yl)phenyl]methyl]benzenecarbohydroxamic acid] | + (basal×1 means no increment (+)) | + (basal×1 means no increment (+))
4 | 0.01 to 1 µM | – | – | – | 0.01 to 1 µM | 0.01 to 1 µM | 0.01 to 1 µM | 1 to 10 µM | 0.01 to 1 µM | – | 102 (7)^c nmol/Kg | 30 min | 11800 nM | CCCc1nn(C)c2c(=O)[nH]c(-c3cc(Cc4ccc(C(=O)NO)s4)ccc3OCC)nc12 [Example 1-16] | + (basal×1 means no increment (+)) | ++ (basal×1≦(++)<basal×2)

Reference: patent US9573956B2, “Compounds as dual inhibitors of phosphodiesterases and histone deacetylases” (FUNDACIÓN PARA LA INVESTIGACIÓN MÉDICA APLICADA, priority 2013, dated 2017)
